Calls of active or inactive are those of the source. The calls are words filed in the database; no cut-off is given here.
Key:
[1] = Ratio of drug level in brain to plasma in Wistar Han rat at 0.3 mg/kg, iv after 0.25 hrs; format: ADME, organism-based; settings: read-out: BPR
[2] = Plasma concentration in Wistar Han rat at 0.3 mg/kg, iv measured 1 hr post compound administration; format: ADME, organism-based
[3] = Plasma concentration in Wistar Han rat at 0.3 mg/kg, iv measured 0.25 hrs post compound administration; format: ADME, organism-based
[4] = Drug level in Wistar Han rat brain at 0.3 mg/kg, iv measured 1 hr post compound administration; format: ADME, organism-based; settings: read-out: Drug uptake
[5] = Ratio of drug level in brain to plasma in Wistar Han rat at 0.3 mg/kg, iv after 1 hr; format: ADME, organism-based; settings: read-out: BPR
Rattus norvegicus [6] = assay: Toxicity in Wistar Han rat assessed as induction of lethargy at 0.3 mg/kg, iv measured up to 2 hrs; format: organism-based; settings: in vivo
Rattus norvegicus [7] = assay: Toxicity in Wistar Han rat assessed as induction of hunched or abnormal posture at 0.3 mg/kg, iv measured up to 2 hrs; format: organism-based; settings: in vivo
Mus musculus [8] = assay: (§1) Antiinflammatory activity in oxazolone-induced delayed type hypersensitivity BALB/c mouse model assessed as ear swelling at 0.6 mg applied topically on ear administered 3 hrs prior to oxazolone challenge on day 7 to 12 post sensitization followed by re-administration of compound on day 13 to 18 without oxazolone challenge measured on day 13 (reference value: 666 +/- 28 micrometer); format: functional
Mus musculus [9] = assay: (§2) Antiinflammatory activity in oxazolone-induced delayed type hypersensitivity BALB/c mouse model assessed as ear weight at 0.6 mg applied topically on ear administered 3 hrs prior to oxazolone challenge on day 7 to 12 post sensitization followed by re-administration of compound on day 13 to 18 without oxazolone challenge measured on day 19 (reference value: 30.2 +/- 0.7 mg); format: functional
Mus musculus [10] = assay: as §2, with “hyperplastic epidrmis” for “ear weight”, “by H and E staining based assay” for “(reference value: 30.2 +/- 0.7 mg)”; format: functional
Mus musculus [11] = assay: as §1, with “on day 19 (reference value:” for “on day 13 (reference value:”, “(reference value: 242 +/- 11” for “(reference value: 666 +/- 28”, “242 +/- 11 micrometer)” for “666 +/- 28 micrometer)”; format: functional
Mus musculus [12] = assay: as §2, with “thickness level” for “weight”, “by H and E staining based assay” for “(reference value: 30.2 +/- 0.7 mg)”; format: functional
Mus musculus [13] = assay: as §2, with “lymphocyte dermal infiltration” for “ear weight”, “by H and E staining based assay” for “(reference value: 30.2 +/- 0.7 mg)”; format: functional
Mus musculus [14] = assay: as §2, with “neutrophil dermal infiltration” for “ear weight”, “by H and E staining based assay” for “(reference value: 30.2 +/- 0.7 mg)”; format: functional
Mus musculus [15] = assay: as §2, with “mast cell dermal infiltration” for “ear weight”, “by H and E staining based assay” for “(reference value: 30.2 +/- 0.7 mg)”; format: functional
[16] = biological target: Kappa-type opioid receptor (Cavia porcellus, UniProt P41144); assay: Displacement of [3H]U-69,593 from kappa-type opioid receptor in guinea pig brain membranes after 120 mins by solid scintillation counting; format: cell membranes, Membrane
Mu-type opioid receptor = Mu-type opioid receptor (Cavia porcellus, UniProt P97266); assay: Displacement of [3H]DAMGO from mu-type opioid receptor in guinea pig brain membranes after 120 mins by solid scintillation counting; format: cell membranes, Membrane
[17] = Displacement of [3H]DPDPE from delta-type opioid receptor in guinea pig brain membranes after 120 mins by solid scintillation counting; format: cell membranes, Cavia porcellus, Membrane
[18] = biological target: Kappa-type opioid receptor (Homo sapiens, UniProt P41145); assay: Agonist activity at recombinant human kappa-type opioid receptor expressed in HEK293 cells after 30 mins by [35S]GTPgammaS binding assay; format: functional, cell-based
[19] = Lipophilicity, logD of the compound at pH 7.4 by LC/MS analysis; format: physicochemical; settings: buffer
Mus musculus [20] = assay: Antiinflammatory activity in arachidonic acid-induced ear dermatitis ICR mouse model assessed as reduction in ear swelling at 0.1 mg administered twice tropically 30 mins prior and 15 mins after arachidonic acid addition measured 60 mins post arachidonic acid challenge relative to control; format: functional
Mus musculus [21] = assay: Antiinflammatory activity in arachidonic acid-induced ear dermatitis ICR mouse model assessed as reduction in ear swelling at 0.3 mg administered twice tropically 30 mins prior and 15 mins after arachidonic acid addition measured 60 mins post arachidonic acid challenge relative to control; format: functional
Mus musculus [22] = assay: Antiinflammatory activity in arachidonic acid-induced ear dermatitis ICR mouse model assessed as reduction in ear swelling at 1 mg administered twice tropically 30 mins prior and 15 mins after arachidonic acid addition measured 60 mins post arachidonic acid challenge relative to control; format: functional
Mus musculus [23] = assay: Antiinflammatory activity in arachidonic acid-induced ear dermatitis ICR mouse model assessed as reduction in ear swelling at 3 mg administered twice tropically 30 mins prior and 15 mins after arachidonic acid addition measured 60 mins post arachidonic acid challenge relative to control; format: functional
Mus musculus [24] = assay: (§3) Antiinflammatory activity in tropically administered oxazolone-induced delayed type hypersensitivity BALB/c mouse model assessed as reduction in CD4+ cells per 0.1 mm2 at 2.5 mg administered 3 hrs prior to oxazolone challenge on day 7 to 12 post sensitization followed by re-administration of compound on day 13 to 18 without oxazolone challenge measured on day 19 by DAPI-staining based fluorescence microscopic analysis relative to control; format: functional
Mus musculus [25] = assay: as §3, with “CD8+” for “CD4+”; format: functional
Mus musculus [26] = assay: Toxicity in arachidonic acid-induced ear dermatitis ICR mouse model assessed as induction of modest to severe behaviour depression at 0.1 mg to 3 mg administered twice tropically 30 mins prior and 15 mins after arachidonic acid addition measured 60 mins post arachidonic acid challenge; settings: in vivo, topical_or_ocular, 1 h

Kappa-type opioid receptor (Homo sapiens, UniProt P41145), sequence (P41145 whole entry): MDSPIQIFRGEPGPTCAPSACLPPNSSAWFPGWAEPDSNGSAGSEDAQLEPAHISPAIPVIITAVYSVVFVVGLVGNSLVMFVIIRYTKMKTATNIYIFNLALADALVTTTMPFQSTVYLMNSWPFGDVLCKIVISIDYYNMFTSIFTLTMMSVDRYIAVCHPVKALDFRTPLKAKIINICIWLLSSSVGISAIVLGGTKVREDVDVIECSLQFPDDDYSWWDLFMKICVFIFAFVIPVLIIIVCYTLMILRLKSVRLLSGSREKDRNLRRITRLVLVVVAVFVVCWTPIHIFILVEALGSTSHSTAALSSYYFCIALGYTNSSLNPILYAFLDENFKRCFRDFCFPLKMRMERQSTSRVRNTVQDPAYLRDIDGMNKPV
Kappa-type opioid receptor (Cavia porcellus, UniProt P41144), sequence (P41144 whole entry): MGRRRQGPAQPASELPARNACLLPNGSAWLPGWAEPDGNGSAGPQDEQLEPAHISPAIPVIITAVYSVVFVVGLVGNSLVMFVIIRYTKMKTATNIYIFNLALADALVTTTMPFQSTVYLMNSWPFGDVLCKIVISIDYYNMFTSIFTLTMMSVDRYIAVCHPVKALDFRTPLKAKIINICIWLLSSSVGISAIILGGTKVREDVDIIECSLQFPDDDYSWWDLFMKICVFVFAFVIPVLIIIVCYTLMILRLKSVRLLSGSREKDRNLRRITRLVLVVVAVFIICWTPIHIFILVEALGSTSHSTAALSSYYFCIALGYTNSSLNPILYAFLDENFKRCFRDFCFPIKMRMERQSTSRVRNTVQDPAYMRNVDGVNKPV
Mu-type opioid receptor, sequence (P97266 whole entry): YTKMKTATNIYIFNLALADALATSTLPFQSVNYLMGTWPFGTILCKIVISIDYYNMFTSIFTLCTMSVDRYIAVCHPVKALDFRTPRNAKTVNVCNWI

`COC(=O)N1CCN(C(=O)Cc2ccc(Cl)c(Cl)c2)[C@@H]2[C@@H](N3CCCC3)CCC[C@@H]21.Cl` gave a Kp at 0.25 h [1] of 0.5, a concentration at 1 h [2] of 37.3 ng/mL and a concentration at 0.25 h [3] of 117 ng/mL. The concentration at 1 h [4] was 24.2 ng/g, the Kp at 1 h [5] was 0.65 and the Activity (Rattus norvegicus [6]) was “Toxic”. The Activity (Rattus norvegicus [7]) was “Toxic”.

With `C[C@]12CCC(=O)C=C1CC[C@@H]1[C@@H]2[C@@H](O)C[C@@]2(C)[C@H]1CC[C@]2(O)C(=O)CO` [HYDROCORTISONE] the Activity (Mus musculus [8]) was 332 um, the Activity (Mus musculus [9]) was 17.2 mg and the Activity (Mus musculus [10]) was “Active”. For the same compound, the Activity (Mus musculus [11]) was 66 um, the Activity (Mus musculus [12]) was “Active” and the Activity (Mus musculus [13]) was “Active”. For the same compound, the Activity (Mus musculus [14]) was “Active” and the Activity (Mus musculus [15]) was “Active”.

`CS(=O)(=O)N1CCN(C(=O)Cc2ccc(Cl)c(Cl)c2)[C@@H]2[C@@H](N3CC[C@H](O)C3)CCC[C@@H]21` showed a Ki [16] of 0.63 nM, a Ki (Mu-type opioid receptor) of 336 nM and a Ki [17] of 367 nM. For the same compound, the EC50 [18] was 1.8 nM, the logD [19] was 2.41 and the “inhibition (INH)” value (Mus musculus [20]) was -4%. For the same compound, the “inhibition (INH)” value (Mus musculus [21]) was -4%, the “inhibition (INH)” value (Mus musculus [22]) was 32% and the “inhibition (INH)” value (Mus musculus [23]) was 56%. For the same compound, the “inhibition (INH)” value (Mus musculus [24]) was 45% and the “inhibition (INH)” value (Mus musculus [25]) was 45%.

With `COC(=O)N1CCN(C(=O)Cc2ccc(F)c(Cl)c2)[C@@H]2[C@@H](N3CC[C@H](F)C3)CCC[C@@H]21` the Ki [16] was 0.56 nM, the Ki [17] was 74 nM and the EC50 [18] was 0.4 nM. For the same compound, the “inhibition (INH)” value (Mus musculus [20]) was 25%, the “inhibition (INH)” value (Mus musculus [21]) was 40% and the “inhibition (INH)” value (Mus musculus [22]) was 66%. For the same compound, the “inhibition (INH)” value (Mus musculus [23]) was 60% and the Activity (Mus musculus [26]) was “Toxic”.
